Earlier results as cited in patent US20070293529A1, “Tetrasubstituted ureas as modulators of 11-beta hydroxyl steroid dehydrogenase type 1” (priority 2006, published 2007).

How the values were obtained:
11βHSD1 in the eye = molecular target: T1, 11βHSD1 in the eye (Homo sapiens, UniProt P28845); conditions: healthy volunteers, after seven days of carbenoxolone treatment
T1 construct: host or cells: endogenous enzyme in the eye (NPE cells) of the treated volunteers

[1] = system: pancreatic islet cells of ob/ob mice
[2] = system: primary hippocampal cells
11βHSD1 = molecular target: T2, 11βHSD1 (Homo sapiens, UniProt P28845); conditions: two randomized, double-blind, placebo-controlled crossover studies
T2 construct: host or cells: endogenous enzyme of the treated subjects (brain)
T2 sequence (P28845 whole entry): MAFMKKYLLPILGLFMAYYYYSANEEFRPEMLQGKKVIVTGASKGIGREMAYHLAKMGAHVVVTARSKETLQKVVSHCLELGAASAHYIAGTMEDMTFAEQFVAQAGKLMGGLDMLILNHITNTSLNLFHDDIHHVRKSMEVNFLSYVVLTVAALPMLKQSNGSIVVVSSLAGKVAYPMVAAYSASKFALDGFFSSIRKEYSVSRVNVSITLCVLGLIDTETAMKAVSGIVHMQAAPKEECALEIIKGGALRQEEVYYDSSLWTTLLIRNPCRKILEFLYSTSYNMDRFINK

T1 sequence (P28845 whole entry): as above

Question: For `CC1(C)[C@@H](OC(=O)CCC(=O)O)CC[C@]2(C)[C@H]3C(=O)C=C4[C@@H]5C[C@@](C)(C(=O)O)CC[C@]5(C)CC[C@@]4(C)[C@]3(C)CC[C@@H]12` [carbenoxolone], which “reduction of intra-ocular pressure (IOP)” value (11βHSD1 in the eye) is on record?
Answer: 18%

Question: And the glucose-stimulated insulin release [1]?
Answer: improves glucose-stimulated insulin release

Question: What about the “protection from glucocorticoid-mediated exacerbation of excitatory amino acid neurotoxicity” value [2] of the same compound?
Answer: protects the cells from glucocorticoid-mediated exacerbation of excitatory amino acid neurotoxicity

Question: And the “verbal fluency and verbal memory” value (11βHSD1)?
Answer: improved verbal fluency and verbal memory

Question: What about the “negative effects of glucocorticoids on bone nodule formation” value (bone nodule formation) of the same compound?
Answer: attenuate the negative effects of glucocorticoids on bone nodule formation
